In article PMC8301156, “Phenolic Extracts from Extra Virgin Olive Oils Inhibit Dipeptidyl Peptidase IV Activity: In Vitro, Cellular, and In Silico Molecular Modeling Investigations” (Antioxidants, 2021):

test system: DPP-IV; experiment: not given; details: cited from earlier work

| SMILES | mode of DPP-IV inhibition | activity against DPP-IV (in words) |
| --- | --- | --- |
| O=c1cc(-c2ccc(O)cc2)oc2cc(O)cc(O)c12 [apigenin] | noncompetitive | – |
| O.Oc1cc(O)c2c(c1)O[C@H](c1ccc(O)c(O)c1)[C@@H](O)C2 [catechin] | – | totally inactive |
| O=C(/C=C/c1ccc(O)c(O)c1)O[C@@H]1C[C@](O)(C(=O)O)C[C@@H](O)[C@H]1O [chlorogenic acid] | – | totally inactive |
| COc1cc(/C=C/C(=O)CC(=O)/C=C/c2ccc(O)c(OC)c2)ccc1O [curcumin] | competitive | more active than resveratrol |
| Oc1cc(O)c2c(c1)O[C@H](c1ccc(O)c(O)c1)[C@H](O)C2 [epicatechin] | – | totally inactive |
| O=c1c(-c2ccc(O)cc2)coc2cc(O[C@@H]3O[C@H](CO)[C@@H](O)[C@H](O)[C@H]3O)cc(O)c12 [genistin] | – | totally inactive |
| COc1ccc([C@@H]2CC(=O)c3c(O)cc(O[C@@H]4O[C@H](CO[C@@H]5O[C@@H](C)[C@H](O)[C@@H](O)[C@H]5O)[C@@H](O)[C@H](O)[C@H]4O)cc3O2)cc1O [hesperidin] | – | totally inactive |
| CC1(C)O[C@H]2CC(=O)OC[C@]23[C@H]2CC[C@@]4(C)[C@H](c5ccoc5)OC(=O)[C@H]5O[C@]54[C@]2(C)C(=O)C[C@@H]13 [limonin] | – | totally inactive |
| O=c1cc(-c2ccc(O)c(O)c2)oc2cc(O)cc(O)c12 [luteolin] | noncompetitive | – |
| C[C@@H]1O[C@@H](O[C@H]2[C@H](Oc3cc(O)c4c(c3)O[C@H](c3ccc(O)cc3)CC4=O)O[C@H](CO)[C@@H](O)[C@@H]2O)[C@H](O)[C@H](O)[C@H]1O [naringin] | – | totally inactive |
| C[C@@H]1O[C@@H](OC[C@H]2O[C@@H](Oc3cc(O)c4c(c3)O[C@H](c3ccc(O)cc3)CC4=O)[C@H](O)[C@@H](O)[C@@H]2O)[C@H](O)[C@H](O)[C@H]1O [narirutin] | – | totally inactive |
| COc1ccc([C@@H]2CC(=O)c3c(O)cc(O[C@@H]4O[C@H](CO)[C@@H](O)[C@H](O)[C@H]4O[C@@H]4O[C@@H](C)[C@H](O)[C@@H](O)[C@H]4O)cc3O2)cc1O [neohesperidin] | – | totally inactive |
| O=C(O)c1ccc(O)c(O)c1 [protocatechuic acid] | – | totally inactive |
| Oc1ccc(/C=C/c2cc(O)cc(O)c2)cc1 [resveratrol] | competitive | – |
| C[C@@H]1O[C@@H](OC[C@H]2O[C@@H](Oc3c(-c4ccc(O)c(O)c4)oc4cc(O)cc(O)c4c3=O)[C@H](O)[C@@H](O)[C@@H]2O)[C@H](O)[C@H](O)[C@H]1O [rutin] | – | totally inactive |

same assay, conditions: read-out: IC50, in vitro DPP-IV activity; cited from earlier work

| SMILES | IC50 |
| --- | --- |
| C[C@@H]1O[C@@H](OC[C@H]2O[C@@H](Oc3cc(O)c4c(c3)O[C@H](c3ccc(O)c(O)c3)CC4=O)[C@H](O)[C@@H](O)[C@@H]2O)[C@H](O)[C@H](O)[C@H]1O [eriocitrin] | 10.36 ± 0.09 µM |
| Oc1ccc(/C=C/c2cc(O)cc(O)c2)cc1 [resveratrol] | 0.0006 ± 0.0004 µM |

target: T1, purified human recombinant DPP-IV enzyme (Homo sapiens, UniProt P27487); experiment: In vitro DPP-IV activity assay (Gly-Pro-AMC fluorescence); assay type: biochemical; details: tested 1–1000 µM
T1 construct: purchased Cayman Chemicals
T1 sequence (P27487 whole entry): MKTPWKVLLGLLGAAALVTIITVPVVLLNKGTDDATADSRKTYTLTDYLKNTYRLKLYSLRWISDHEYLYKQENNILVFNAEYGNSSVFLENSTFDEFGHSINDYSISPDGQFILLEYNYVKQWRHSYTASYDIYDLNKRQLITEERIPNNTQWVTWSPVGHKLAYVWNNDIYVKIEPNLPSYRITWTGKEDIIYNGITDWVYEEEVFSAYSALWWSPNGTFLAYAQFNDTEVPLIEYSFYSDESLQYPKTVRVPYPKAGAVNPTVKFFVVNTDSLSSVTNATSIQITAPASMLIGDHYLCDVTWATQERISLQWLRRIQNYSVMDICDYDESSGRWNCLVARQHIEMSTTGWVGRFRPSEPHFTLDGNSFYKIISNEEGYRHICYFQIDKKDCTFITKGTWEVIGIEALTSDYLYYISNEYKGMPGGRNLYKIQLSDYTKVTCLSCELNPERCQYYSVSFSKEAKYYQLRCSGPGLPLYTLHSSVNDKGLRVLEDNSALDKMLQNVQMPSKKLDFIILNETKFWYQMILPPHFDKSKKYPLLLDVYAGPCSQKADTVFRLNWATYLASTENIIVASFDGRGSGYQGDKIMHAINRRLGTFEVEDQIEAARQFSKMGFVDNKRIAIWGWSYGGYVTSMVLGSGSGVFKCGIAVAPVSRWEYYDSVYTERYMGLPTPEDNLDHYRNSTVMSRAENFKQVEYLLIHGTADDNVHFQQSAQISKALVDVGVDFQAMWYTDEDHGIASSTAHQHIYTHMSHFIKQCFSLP
Procedure: The DPP-IV enzyme was provided by Cayman Chemicals (Ann Arbor, MI, USA), while the DPP-IV substrate (Gly-Pro-amido-4-methylcoumarin hydrobromide (Gly-Pro-AMC)) was from AnaSpec Inc. (Freemont, CA, USA). The experiments were carried out in triplicate in a half-volume 96-well solid plate (white) following conditions previously optimized. More details are available in the Supplementary Material.
To evaluate the DPP-IV inhibitory activity of both BUO and OMN, in vitro experiments were performed by using the purified human recombinant DPP-IV enzyme and H-Gly-Pro-AMC as a substrate. The reaction was monitored by measuring the fluorescence signals at 465 nm after excitation at 350 nm, deriving from the release of a free AMC group after the cleavage of H-Gly-Pro-AMC catalyzed by DPP-IV. […]
Tris-HCl, ethylendiaminetetraacetic acid (EDTA) and NaCl were from Sigma-Aldrich (St. Louis, MO, USA) The DPP-IV assay kit was from (Cayman Chemicals (Michigan, USA), while Gly- Pro-amido-4-methylcoumarin hydrobromide (Gly- Pro-AMC) was from AnaSpec (Freemont, CA, USA). […]
MA, USA). Tyrosol (≥98%), hydroxytyrosol (≥98%), and oleocanthal (≥95%) were from Merck Life Science S.r.l. (Milano, Italy); oleuropein (≥98%) was from Extrasynthese (Genay, France), whereas oleacin was from Phytolab
(Vestenbergsgreuth, Germany).
2.3. In Vitro DPP-IV Activity Assay
The DPP-IV enzyme was provided by Cayman Chemicals (Michigan, USA), while the DPP-IV substrate (H-Gly-Pro-AMC) was from AnaSpec Inc.
(Freemont, CA, USA). The experiments were carried out in triplicate in a half volume 96-well solid plate (white). […]
Subsequently, the samples were mixed and 50 μL of each reaction was transferred in each plate well. […] Fluorescence signals deriving from the release of free AMC were measured using a Synergy H1 fluorescence plate reader from BioTek (excitation/emission wavelength

| SMILES | IC50 |
| --- | --- |
| OCCc1ccc(O)c(O)c1 [hydroxytyrosol] | 742 ± 35.7 µM |
| C/C=C1/[C@H](O[C@@H]2O[C@H](CO)[C@@H](O)[C@H](O)[C@H]2O)OC=C(C(=O)OC)[C@H]1CC(=O)OCCc1ccc(O)c(O)c1 [oleuropein] | 472 ± 21.7 µM |
| OCCc1ccc(O)cc1 [tyrosol] | 1110 ± 55.6 µM |
